Laboratory results reported in patent publication US20250228239A1, “MOLECULES HAVING PESTICIDAL UTILITY, AND INTERMEDIATES, COMPOSITIONS, AND PROCESSES, RELATED THERETO” (priority 2024, published 2025).
Read-outs that look alike come from different tables or passages of the source.

How the values were obtained:
[1] = test system: Cabbage Looper (Trichoplusia ni, TRIPNI); assay: Bioassays on Cabbage Looper (CL), 128-well diet tray assay; assay type: in vivo; details: Trichoplusia ni; for mortality at 50 µg/cm2: 168 h, second instar larvae, 50 μg/cm^2 of test molecule on artificial diet, 25° C., five to seven days, average of eight wells, read-out: CL % Control (or Mortality) rating
In short: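 One to five second-instar larvae per well on artificial diet surface-treated with 50 μg/cm^2 test molecule (applied in 90:10 acetone-water, dried). Held 5–7 days at 25° C, 14:10 light-dark; percent mortality recorded per well and averaged over eight wells.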

[2] = test system: Beet Armyworm (Spodoptera exigua, LAPHEG); assay: Bioassays on Beet Armyworm (BAW), 128-well diet tray assay; assay type: in vivo; details: Spodoptera exigua; for mortality at 50 µg/cm2: 168 h, second instar larvae, 50 μg/cm^2 of test molecule on artificial diet, 25° C., five to seven days, average of eight wells, read-out: BAW % Control (or Mortality) rating
In short: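 Larvae at second instar are exposed on dried, compound-treated diet (50 μg/cm^2, delivered in 90:10 acetone-water) in eight replicate wells. After five to seven days at 25° C., 14:10 light-dark, percent mortality in each well is scored and the eight wells averaged.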

[3] = Cabbage Looper, Table ABC / ABC-DP rating, read-out: CL rating
[4] = Beet Armyworm, Table ABC / ABC-DP rating, read-out: BAW rating
[5] = Table ABC: Biological Results, species CL, read-out: CL
[6] = Table ABC: Biological Results, species BAW, read-out: BAW
[7] = Cabbage Looper, rating class, read-out: CL
[8] = Beet Armyworm, rating class, read-out: BAW

SMILES	pest or weed control at 50 µg/cm2 [1, 3] [%]	pest or weed control at 50 µg/cm2 [2, 4] [%]	pest or weed control at 50 µg/cm2 [1, 5] [%]	pest or weed control at 50 µg/cm2 [2, 6] [%]	pest or weed control at 50 µg/cm2 [1, 7] [%]	pest or weed control at 50 µg/cm2 [2, 8] [%]	also measured
O=C(Nc1ccc(F)c(NC(=O)C2CCOC2C(F)(F)F)c1F)c1cc(NC(=O)[C@H]2[C@H](c3ccc(F)c(C(F)(F)F)c3)C2(Cl)Cl)ccc1Cl (stereo partly drawn) [F1837, N-(3-(2-Chloro-5-((1R,3R)-2,2-dichloro-3-(4-fluoro-3-(trifluoromethyl)phenyl)cyclopropane-1-carboxamido)benzamido)-2,6-difluorophenyl)-2-(trifluoromethyl)tetrahydrofuran-3-carboxamide]	50 to 100	50 to 100	–	–	–	–	–
O=C(Nc1ccc(F)c(NS(=O)(=O)CC2CC2(Cl)Cl)c1F)c1cc(NC(=O)[C@H]2[C@H](c3ccc(F)c(C(F)(F)F)c3)C2(Cl)Cl)ccc1Cl (stereo partly drawn) [F1361, 2-Chloro-5-((1R,3R)-2,2-dichloro-3-(4-fluoro-3-(trifluoromethyl)phenyl)cyclopropane-1-carboxamido)-N-(3-(((2,2-dichlorocyclopropyl)methyl)sulfonamido)-2,4-difluorophenyl)benzamide]	–	–	50 to 100	50 to 100	–	–	–
O=C(Nc1c(F)ccc(NC(=O)C(F)(F)C(F)F)c1F)c1cc(NC(=O)[C@H]2[C@H](c3cc(Cl)c(Cl)c(Cl)c3)C2(Cl)Cl)ccc1Cl [F1534, 2-Chloro-5-((1R,3R)-2,2-dichloro-3-(3,4,5-trichlorophenyl)cyclopropane-1-carboxamido)-N-(2,6-difluoro-3-(2,2,3,3-tetrafluoropropanamido)phenyl)benzamide]	–	–	–	–	50 to 100	50 to 100	–
Nc1c(F)cc(NC(=O)c2cc(NC(=O)[C@H]3[C@H](c4ccc(Cl)c(Cl)c4)C3(Cl)Cl)ccc2Cl)cc1F (relative stereo) [DP3, trans-N-(4-Amino-3,5-difluorophenyl)-2-chloro-5-(2,2-dichloro-3-(3,4-dichlorophenyl)cyclopropane-1-carboxamido)benzamide]	50 to 100	50 to 100	–	–	–	–	mortality at 50 µg/cm2 [1]: 50 to 100%; mortality at 50 µg/cm2 [2]: 50 to 100%
Cc1cc(NCCC(N)=O)ccc1NC(=O)c1cc(NC(=O)[C@H]2[C@H](c3cc(Cl)cc(Cl)c3)C2(Cl)Cl)ccc1Cl (relative stereo) [F1158, trans-N-(4-((3-Amino-3-oxopropyl)amino)-2-methylphenyl)-2-chloro-5-(2,2-dichloro-3-(3,5-dichlorophenyl)cyclopropane-1-carboxamido)benzamide]	–	–	50 to 100	50 to 100	–	–	–
O=C1CC(C(=O)Nc2c(F)ccc(NC(=O)c3cc(NC(=O)[C@H]4[C@H](c5cc(Cl)c(Cl)c(Cl)c5)C4(Cl)Cl)ccc3Cl)c2F)C1 [F1649, 2-Chloro-5-((1R,3R)-2,2-dichloro-3-(3,4,5-trichlorophenyl)cyclopropane-1-carboxamido)-N-(2,4-difluoro-3-(3-oxocyclobutane-1-carboxamido)phenyl)benzamide]	–	–	–	–	50 to 100	50 to 100	–
O=C(Nc1ccc(F)c(NC(=O)C(F)F)c1F)c1cc(NC(=O)[C@H]2[C@H](c3ccc(F)c(C(F)(F)F)c3)C2(Cl)Cl)cc(F)c1F [F1571, 5-((1R,3R)-2,2-Dichloro-3-(4-fluoro-3-(trifluoromethyl)phenyl)cyclopropane-1-carboxamido)-N-(3-(2,2-difluoroacetamido)-2,4-difluorophenyl)-2,3-difluorobenzamide]	–	–	–	–	50 to 100	50 to 100	–
Nc1c(F)ccc(NC(=O)c2cc(NC(=O)[C@H]3[C@H](c4ccc(F)c(Cl)c4)C3(Cl)Cl)cc(F)c2Cl)c1F (relative stereo) [F1156, trans-N-(3-Amino-2,4-difluorophenyl)-2-chloro-5-(2,2-dichloro-3-(3-chloro-4-fluorophenyl)cyclopropane-1-carboxamido)-3-fluorobenzamide]	–	–	50 to 100	50 to 100	–	–	–
CC(=O)Nc1ccc(F)c(NC(=O)c2cc(NC(=O)[C@H]3[C@H](c4ccc(Cl)c(Cl)c4)C3(Cl)Cl)cc(F)c2Cl)c1F [F1522, N-(3-Acetamido-2,6-difluorophenyl)-2-chloro-5-((1R,3R)-2,2-dichloro-3-(3,4-dichlorophenyl)cyclopropane-1-carboxamido)-3-fluorobenzamide]	–	–	–	–	50 to 100	50 to 100	–
Cc1cc(C2C(C(=O)Nc3ccc(Cl)c(C(=O)Nc4ccc(F)c(N)c4F)c3)C2(Cl)Cl)cc(C(F)(F)F)c1F (stereo not drawn) [F1069, cis-N-(3-Amino-2,4-difluorophenyl)-2-chloro-5-((cis)-2,2-dichloro-3-(4-fluoro-3-methyl-5-(trifluoromethyl)phenyl)cyclopropane-1-carboxamido)benzamide]	–	–	50 to 100	50 to 100	–	–	–
O=C(Nc1c(F)ccc(NC(=O)C(F)(F)F)c1F)c1cc(NC(=O)[C@H]2[C@H](c3ccc(Cl)c(Cl)c3)C2(Cl)Cl)ccc1F [F1513, 5-((1R,3R)-2,2-Dichloro-3-(3,4-dichlorophenyl)cyclopropane-1-carboxamido)-N-(2,6-difluoro-3-(2,2,2-trifluoroacetamido)phenyl)-2-fluorobenzamide]	–	–	–	–	50 to 100	50 to 100	–
Cc1cc(NCc2ccc(C(F)(F)F)cc2)ccc1NC(=O)c1cc(NC(=O)[C@H]2[C@H](c3cc(Cl)cc(Cl)c3)C2(Cl)Cl)ccc1Cl (relative stereo) [F1165, trans-2-Chloro-5-(2,2-dichloro-3-(3,5-dichlorophenyl)cyclopropane-1-carboxamido)-N-(2-methyl-4-((4-(trifluoromethyl)benzyl)amino)phenyl)benzamide]	–	–	50 to 100	50 to 100	–	–	–
CCC(=O)Nc1c(F)ccc(NC(=O)c2cc(NC(=O)[C@H]3[C@H](c4ccc(F)c(Br)c4)C3(Cl)Cl)ccc2Cl)c1F [F1717, 5-((1R,3R)-3-(3-Bromo-4-fluorophenyl)-2,2-dichlorocyclopropane-1-carboxamido)-2-chloro-N-(2,4-difluoro-3-propionamidophenyl)benzamide]	–	–	–	–	50 to 100	50 to 100	–
O=C(CC(C(F)(F)F)C(F)(F)F)Nc1c(F)ccc(NC(=O)c2cc(NC(=O)[C@H]3[C@H](c4ccc(F)c(C(F)(F)F)c4)C3(Cl)Cl)ccc2Cl)c1F [F1833, 2-Chloro-5-((1R,3R)-2,2-dichloro-3-(4-fluoro-3-(trifluoromethyl)phenyl)cyclopropane-1-carboxamido)-N-(2,4-difluoro-3-(4,4,4-trifluoro-3-(trifluoromethyl)butanamido)phenyl)benzamide]	50 to 100	50 to 100	–	–	–	–	–
Nc1cc(F)c(F)cc1NC(=O)c1cc(NC(=O)[C@H]2[C@H](c3ccc(F)c(Cl)c3)C2(Cl)Cl)ccc1Cl [F1134, N-(2-Amino-4,5-difluorophenyl)-2-chloro-5-((1R,3R)-2,2-dichloro-3-(3-chloro-4-fluorophenyl)cyclopropane-1-carboxamido)benzamide]	–	–	50 to 100	50 to 100	–	–	–
O=C(NCC(F)(F)F)c1c(Cl)ccc(NC(=O)[C@H]2[C@H](c3ccc(F)c(Cl)c3)C2(Cl)Cl)c1F [F2072, 6-Chloro-3-((1R,3R)-2,2-dichloro-3-(3-chloro-4-fluorophenyl)cyclopropane-1-carboxamido)-2-fluoro-N-(2,2,2-trifluoroethyl)benzamide]	50 to 100	50 to 100	–	–	–	–	–
O=C(CCC(F)(F)C(F)(F)F)Nc1c(F)ccc(NC(=O)c2cc(NC(=O)[C@H]3[C@H](c4ccc(F)c(Cl)c4)C3(Cl)Cl)ccc2Cl)c1F [F1865, 2-Chloro-5-((1R,3R)-2,2-dichloro-3-(3-chloro-4-fluorophenyl)cyclopropane-1-carboxamido)-N-(2,4-difluoro-3-(4,4,5,5,5-pentafluoropentanamido)phenyl) benzamide]	50 to 100	50 to 100	–	–	–	–	–
Cc1cc(NC(=O)[C@H]2[C@H](c3ccc(Cl)c(Cl)c3)C2(Cl)Cl)cc(C(=O)Nc2c(F)ccc(NC(=O)C(F)(F)F)c2F)c1Cl [F1430, 2-Chloro-5-((1R,3R)-2,2-dichloro-3-(3,4-dichlorophenyl)cyclopropane-1-carboxamido)-N-(2,6-difluoro-3-(2,2,2-trifluoroacetamido)phenyl)-3-methylbenzamide]	–	–	–	–	50 to 100	50 to 100	–
O=C(NNc1ccccc1C(F)(F)F)c1cc(NC(=O)[C@H]2[C@H](c3cc(Cl)cc(Cl)c3)C2(Cl)Cl)ccc1Cl (relative stereo) [F2573, trans-2,2-Dichloro-N-(4-chloro-3-(2-(2-(trifluoromethyl)phenyl)hydrazine-1-carbonyl)phenyl)-3-(3,5-dichlorophenyl)cyclopropane-1-carboxamide]	50 to 100	50 to 100	–	–	–	–	mortality at 50 µg/cm2 [1]: 50 to 100%; mortality at 50 µg/cm2 [2]: 50 to 100%
O=C(Nc1ccc(F)cc1F)c1cc(NC(=O)[C@@H]2[C@@H](c3cc(F)c(F)c(F)c3)C2(Cl)Cl)ccc1Cl [F1749, 2-Chloro-5-((1S,3S)-2,2-dichloro-3-(3,4,5-trifluorophenyl)cyclopropane-1-carboxamido)-N-(2,4-difluorophenyl)benzamide]	–	–	–	–	50 to 100	50 to 100	–
